Where two headings read alike, the source gives them in different places.
Legend:
[1] = target: T1, cysteine-rich domain of the murine macrophage mannose receptor (Cys-MR) (Mus musculus, UniProt Q61830); test: microwell inhibition of Cys-MR-Fc binding to immobilized human lutropin
T1 sequence (Q61830 20-154): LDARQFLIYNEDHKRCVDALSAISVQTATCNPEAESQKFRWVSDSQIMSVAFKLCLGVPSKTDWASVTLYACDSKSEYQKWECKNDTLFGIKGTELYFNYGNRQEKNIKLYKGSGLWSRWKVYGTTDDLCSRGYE

[2] = target: T1, cysteine-rich domain of the murine macrophage mannose receptor (Cys-MR); test: as above; remark: listed apart in the source

IC50 [1]	IC50 [2]	Structure (SMILES)
180 µM	–	CC(=O)N[C@H]1C(O)O[C@H](CO)[C@H](OS(=O)(=O)O)[C@@H]1O (some centres unmarked) [4-sulfated N-acetylgalactosamine]
–	1.3 mM	CC(=O)N[C@H]1C(O)O[C@H](COS(=O)(=O)O)[C@H](O)[C@@H]1O (some centres unmarked) [6-sulfated N-acetylgalactosamine]
